The source of these data is patent publication US9161536B2, “Herbicidal compositions comprising 4-amino-3-chloro-6-(4-chloro-2-fluoro-3-methoxyphenyl)-5-fluoropyridine-2-carboxylic acid or a derivative thereof and flurtamone, diflufenican, or picolinafen” (Dow AgroSciences LLC, priority 2012, dated 2015).

What all share (assay type): in vivo
Assay [1] has as its system Triticum aestivum (spring), spring wheat (TRZAS). Kind of assay: greenhouse trial, foliar applied compositions, TRZAS. An excerpt:
(§1) More specifically, the following equation is used to calculate the expected activity of mixtures containing two herbicical active ingredients: Expected=A+B−(A×B/100) • A=observed efficacy of a first active ingredient at the same concentration as used in the mixture; • B=observed efficacy of the second active ingredient (or product, which may be a combination of active ingredients) at the same concentration as used in the mixture.
(§2) Results in Tables 1-8 are greenhouse trial results for foliar applied compositions.
(§3) • g/ha=grams acid equivalent per hectare (g ae/ha) for Cmpd 1 and grams active ingredient per hectare (g ai/ha) for diflufenican, picolinafen, BACARA® and BACARA® FORTE • Obs=observed value • Exp=expected value as calculated by the equations set forth above in paragraph [0024]. • Cmpd 1=benzyl 4-amino-3-chloro-6-(4-chloro-2-fluoro-3-methoxyphenyl)-5-fluoropyridine-2-carboxylate

For assay [2], the system named is Hordeum vulgare L., spring barley (HORVS). Kind of assay: greenhouse trial, foliar applied compositions, HORVS.
Excerpt: as §1, §2, §3

Assay [3] deals with Sinapis arvensis L., wild mustard (SINAR). In words: greenhouse trial, foliar applied compositions, SINAR.
Excerpt: as §1, §2, §3

Assay [4] has as its system Lamium purpureum L., purple deadnettle (LAMPU). In words: greenhouse trial, foliar applied compositions, LAMPU.
Excerpt: as §1, §2, §3

Assay [5] concerns Galium aparine L., catchweed bedstraw (GALAP). Kind of assay: greenhouse trial, foliar applied compositions, GALAP.
Excerpt: as §1, §2, §3

Assay [6] deals with Chenpodium album L., common lambsquarters (CHEAL). In words: greenhouse trial, foliar applied compositions, CHEAL.
Excerpt: as §1, §2, §3

Assay [7] deals with Kochia scoparia (L.) Schrad., kochia (KCHSC). Kind of assay: greenhouse trial, foliar applied compositions, KCHSC.
Excerpt: as §1, §2, §3

Assay [8] relates to Salsola tragus L., Russian thistle (SASKR). In words: greenhouse trial, foliar applied compositions, SASKR.
Excerpt: as §1, §2, §3

Assay [9] has as its system Veronica persica Poir., Persian speedwell (VERPE). Kind of assay: greenhouse trial, foliar applied compositions, VERPE.
Excerpt: as §1, §2, §3

Assay [10] deals with Viola tricolor L., wild violet (VIOTR). Kind of assay: greenhouse trial, foliar applied compositions, VIOTR.
Excerpt: as §1, §2, §3

Assay [11] concerns Matricaria recutita L., wild chamomile (MATCH). Kind of assay: greenhouse trial, foliar applied compositions, MATCH.
Excerpt: as §1, §2, §3

For assay [12], the system named is Papaver rhoeas L., common poppy (PAPRH). In words: greenhouse trial, foliar applied compositions, PAPRH.
Excerpt: as §1, §2, §3

The test system of assay [13] is Cirsium arvense (L.) Scop., Canada thistle (CIRAR). Kind of assay: greenhouse trial, foliar applied compositions, CIRAR.
Excerpt: as §1, §2, §3

The subject of assay [14] is Stellaria media (L.) Vill., common chickweed (STEME). In words: greenhouse trial, foliar applied compositions, STEME.
Excerpt: as §1
In some embodiments, the methods provided herein are utilized to control undesirable vegetation in cereals. In certain embodiments, the undesirable vegetation is Alopecurus myosuroides Huds. (blackgrass, ALOMY), Apera spica venti (L.) Beauv. (windgrass, APESV), Avena fatua L. (wild oat, AVEFA), Bromus tectorum L. (downy brome, BROTE), Lolium multiflorum Lam. (Italian ryegrass, LOLMU), Lolium rigidum (rigid ryegrass), Lolium multiflorum subsp. Gaudini (annual ryegrass, LOLMG), Phalaris minor Retz. […]
as §3

Each structure is given as a SMILES string.

On to `COc1c(Cl)ccc(-c2nc(C(=O)OCc3ccccc3)c(Cl)c(N)c2F)c1F` [Cmpd 1, benzyl 4-amino-3-chloro-6-(4-chloro-2-fluoro-3-methoxyphenyl)-5-fluoropyridine-2-carboxylate], for which the “TRZAS Obs” value in assay [1] (Cmpd 1 2.5 g ae/ha alone) amounted to 0; in assay [1] (Cmpd 1 5 g ae/ha alone) it was 5. Further, the “HORVS Obs” value in [2] (Cmpd 1 2.5 g ae/ha alone) and in assay [2] (Cmpd 1 5 g ae/ha alone) was 0 each time. Moreover, the “SINAR Obs” value in assay [3] (Cmpd 1 2.5 g ae/ha alone) is given as 60; in assay [3] (Cmpd 1 5 g ae/ha alone), 70. In addition, the “LAMPU Obs” value in assay [4] (Cmpd 1 2.5 g ae/ha alone) and in assay [4] (Cmpd 1 5 g ae/ha alone) was 80 each time. Also, the “GALAP Obs” value in assay [5] (Cmpd 1 2.5 g ae/ha alone) and in assay [5] (Cmpd 1 5 g ae/ha alone) was 60 throughout. Besides, the “CHEAL Obs” value in [6] (Cmpd 1 2.5 g ae/ha alone) was 50; in [6] (Cmpd 1 5 g ae/ha alone), 60. For the same molecule, the figures for the “KCHSC Obs” value in assay [7] (Cmpd 1 2.5 g ae/ha alone) and in assay [7] (Cmpd 1 5 g ae/ha alone) were 20 and 40, respectively. Also, the “SASKR Obs” value in assay [8] (Cmpd 1 2.5 g ae/ha alone) turned out to be 10; in assay [8] (Cmpd 1 5 g ae/ha alone), 60. Also, the “VERPE Obs” value in assay [9] (Cmpd 1 2.5 g ae/ha alone) is 0; in [9] (Cmpd 1 5 g ae/ha alone), 5. Moreover, the “VIOTR Obs” value in assay [10] (Cmpd 1 2.5 g ae/ha alone) and in assay [10] (Cmpd 1 5 g ae/ha alone) was 10 throughout. Also, the entries for the “MATCH Obs” value in [11] (Cmpd 1 2.5 g ae/ha alone) and in [11] (Cmpd 1 5 g ae/ha alone) were 0 and 10, respectively. The “PAPRH Obs” value in [12] (Cmpd 1 2.5 g ae/ha alone) was determined as 20; in assay [12] (Cmpd 1 5 g ae/ha alone), 70. Further, the “CIRAR Obs” value amounted to 10 in assay [13] (Cmpd 1 2.5 g ae/ha alone) and 20 in assay [13] (Cmpd 1 5 g ae/ha alone). Also, the “STEME Obs” value in [14] (Cmpd 1 2.5 g ae/ha alone) was determined as 20; in assay [14] (Cmpd 1 5 g ae/ha alone), 30.
In the case of `O=C(Nc1ccc(F)cc1F)c1cccnc1Oc1cccc(C(F)(F)F)c1` [Diflufenican, N-(2,4-difluorophenyl)-2-[3-(trifluoromethyl)phenoxy]-3-pyridinecarboxamide], the “TRZAS Obs” value in [1] (Diflufenican 50 g ai/ha alone) was determined as 5. The “HORVS Obs” value in assay [2] (Diflufenican 50 g ai/ha alone) is recorded as 5. Besides, the “SINAR Obs” value in assay [3] (Diflufenican 50 g ai/ha alone) amounted to 30. Further, in assay [4] (Diflufenican 50 g ai/ha alone), the “LAMPU Obs” value is listed as 0. The “GALAP Obs” value in [5] (Diflufenican 50 g ai/ha alone) is given as 0. The “CHEAL Obs” value in assay [6] (Diflufenican 50 g ai/ha alone) is reported as 10. Further, the “KCHSC Obs” value in assay [7] (Diflufenican 50 g ai/ha alone) came out at 40. In addition, the “SASKR Obs” value in assay [8] (Diflufenican 50 g ai/ha alone) came out at 70. In [9] (Diflufenican 50 g ai/ha alone), the “VERPE Obs” value is listed as 10. Further, the “VIOTR Obs” value in assay [10] (Diflufenican 50 g ai/ha alone) is 15. In addition, the “MATCH Obs” value in [11] (Diflufenican 50 g ai/ha alone) was 0. The “PAPRH Obs” value in assay [12] (Diflufenican 50 g ai/ha alone) came out at 0. Also, the “CIRAR Obs” value in assay [13] (Diflufenican 50 g ai/ha alone) was 0.
For `O=C(Nc1ccc(F)cc1)c1cccc(Oc2cccc(C(F)(F)F)c2)n1` [Picolinafen, N-(4-fluorophenyl)-6-[3-(trifluoromethyl)phenoxy]-2-pyridinecarboxamide], the “TRZAS Obs” value in assay [1] (Picolinafen 50 g ai/ha alone) was 10. In addition, in assay [2] (Picolinafen 50 g ai/ha alone), the “HORVS Obs” value is 10. In addition, the “SINAR Obs” value in [3] (Picolinafen 50 g ai/ha alone) is 70. Moreover, in assay [4] (Picolinafen 50 g ai/ha alone), the “LAMPU Obs” value is on record as 0. In [6] (Picolinafen 50 g ai/ha alone), the “CHEAL Obs” value is reported as 70. Besides, the “KCHSC Obs” value in assay [7] (Picolinafen 50 g ai/ha alone) stood at 20. Moreover, in assay [8] (Picolinafen 50 g ai/ha alone), the “SASKR Obs” value worked out at 30. In addition, the “VERPE Obs” value in [9] (Picolinafen 50 g ai/ha alone) turned out to be 10. Also, in assay [10] (Picolinafen 50 g ai/ha alone), the “VIOTR Obs” value worked out at 10. Moreover, the “MATCH Obs” value in assay [11] (Picolinafen 50 g ai/ha alone) was 0. In addition, the “CIRAR Obs” value in [13] (Picolinafen 50 g ai/ha alone) is 15.
